In brackets after ≈: the same amount, converted by molar mass. Entries after “also recorded” stand apart in the source; their conditions may differ. Like-named read-outs stand apart in the source and are kept apart here.
How the values were obtained:
[1] = test system: P388 lymphocytic leukemia; assay: Murine P388 lymphocytic leukemia in vivo screen
Description: In order to evaluate whether these promising results could be translated into in vivo activity, two representative compounds 9d and 10a were chosen. […] These two compounds were examined in the murine P388 screen and against certain human tumors in athymic mice.
(§1) The compounds were examined by the Developmental Therapeutics Program, National Cancer Institute, U.S.A. The murine P388 lymphocytic leukemia assay was conducted by a reported known method and the maximum ILS figures for 9d and 10a were 5 and 20% respectively using doses of 54 and 6.7 mg/kg respectively. An increase of 20% or more in the life spans is considered to be statistically significant. A reference drug 5-fluorouracil has an ILS of >35 using a dose of 20 mg/kg when given intraperitoneally for five days. Passage of human tumors in athymic mice was undertaken by a known method. No definitions of activity are available but as a general rule compounds causing a 60% reduction in tumor weights in one of these screens would be evaluated further.

COLO 205 = COLO 205 human colon tumor xenograft in athymic mice; format: in vivo; details: COLO 205; 16.8 mg/kg
Description: as §1

KM12 = KM12 human colon tumor xenograft in athymic mice; format: in vivo
Description: as §1

CAKI-1 = CAKI-1 human renal tumor xenograft in athymic mice; format: in vivo; details: 16.8 mg/kg
Description: as §1

P388 cells = assay: Cytotoxicity, murine P388 leukemic cells (P388 D1); details: for IC50: read-out: P388 cells IC50; for cytotoxicity compared with compound 9d: Table 3 screens
human tumors = assay: Cytotoxicity, human tumor cell line panel (approximately 55 lines); details: for IC50: read-out: human tumors IC50, mean graph midpoint, approximately 55 cell lines, hydrobromide salts used for 4a, 11a-e
L1210 cells = assay: Cytotoxicity, murine L1210 leukemic cells; format: cell-based; details: Mus musculus, mean
CEM cells = assay: Cytotoxicity, CEM human T-lymphocytes; details: for IC50: Homo sapiens, CCRF-CEM, read-out: CEM cells IC50; for TIL1210 (CEM cells): IC50 T-lymphocytes (CEM)/IC50 L1210; for TIP388 (CEM cells): IC50 T-lymphocytes (CEM)/IC50 P388; for TIht (CEM cells): IC50 T-lymphocytes (CEM)/IC50 human tumors
Molt 4/C8 cells = assay: Cytotoxicity, Molt 4/C8 human T-lymphocytes; details: for TIL1210 (Molt 4/C8 cells): IC50 T-lymphocytes (Molt 4/C8)/IC50 L1210; for TIP388 (Molt 4/C8 cells): IC50 T-lymphocytes (Molt 4/C8)/IC50 P388; for TIht (Molt 4/C8 cells): IC50 T-lymphocytes (Molt 4/C8)/IC50 human tumors; for IC50: read-out: Molt 4/C8 cells IC50
[2] = test system: Aspergillus fumigatus conidia; assay: Kill-curve experiment, Aspergillus fumigatus conidia; format: cell-based; details: Aspergillus fumigatus; 5 μm AMB or 5 μm ITZ, within 24 hr
Description: Kill-Curve Experiment: 5 ml conidial suspension each of the AMB-, and ITZ-susceptible (W73355) and the resistant (AB16.4 and ITZ70) isolates prepared in PYG broth (1×10^6 conidia/ml) was incubated at 35° C. in the presence of 5 μm of AMB or 5 μm ITZ or 50 μm Compound 9b. At various time intervals, 0.1 ml aliquots of the conidial suspension were removed, diluted appropriately to obtain 10^2 to 10^4 fold dilution, and 0.1 ml aliquots were spread in duplicate on PYG agar plates. […] Identical treatment of the conidial suspension in the absence of the drug was used as the growth control.

Aspergillus fumigatus = assay: MIC and MLC, Aspergillus fumigatus, broth macrodilution; details: Aspergillus fumigatus, 48 h
[3] = test system: AMB-resistant Aspergillus fumigatus; assay: MIC and MLC, AMB-resistant Aspergillus fumigatus, broth macrodilution; details: 48 h
[4] = test system: ITZ-resistant Aspergillus fumigatus; assay: MIC and MLC, ITZ-resistant Aspergillus fumigatus, broth macrodilution; details: 48 h
Candida albicans = details: C. albicans; cited from earlier work
human Jurkat T cells [5] = assay: Growth inhibition of Jurkat T cells, trypan blue exclusion test; format: cell-based; details: 48 h, read-out: growth of Jurkat T cells inhibited by 50% (IC50)
Description: All cell cultures used were maintained in RPMI 1640 medium, pH 7.4 supplanted with 10% fetal bovine serum and 50 μg/ml of gentamycin in 25 ml culture flasks at 37° C. in a humidified gas mixture of 5% carbon dioxide balanced with air and were passaged three times a week.
Cell viability was determined by the trypan blue exclusion test according to a literature procedure (Duke and Cohen, 1992). […] A flask containing ~10^6 cells/ml and 8 or […] of DMSO was used as the control. […] After 48 hours, cells were counted using a haemocytometer. The percentage of growth inhibition was calculated as follows: (C-T/C)×100 where C is the mean cell number in the control and T is the mean cell number in each treatment. […] All experiments were performed in triplicate.

human Jurkat T cells [6] = assay: DNA fragmentation by agarose gel electrophoresis; format: cell-based; details: Compound 9d 6 and 10 μM; melphalan 10 μM
human Jurkat T cells [7] = assay: Apoptosis, fluorescence microscopy with acridine orange and ethidium bromide

Row | SMILES | IC50 (P388 cells) | IC50 (human tumors) | IC50 (L1210 cells) | IC50 (CEM cells) | TIL1210 (CEM cells) (CEM cells) | TIP388 (CEM cells) (CEM cells) | TIht (CEM cells) (CEM cells) | TIL1210 (Molt 4/C8 cells) (Molt 4/C8 cells) | TIP388 (Molt 4/C8 cells) (Molt 4/C8 cells) | TIht (Molt 4/C8 cells) (Molt 4/C8 cells) | IC50 (Molt 4/C8 cells) | also measured
1 | CC[N+]1(C)CCC(O)(/C=C/c2ccccc2)C(C(=O)/C=C/c2ccccc2)C1 (stereo not drawn) [Compound 10a] | 2.27 µM | 8.31 µM | – | – | – | – | – | – | – | – | – | maximum ILS / increase in life span, murine P388 ([1]; 6.7 mg/kg): 20%; activity in the murine P388 screen ([1]; in words): marginal potency; % ILS (COLO 205): 14%; percent reduction in median tumor weight (COLO 205): 20%; % T/C (KM12; 16.8 mg/kg): 45%; % ILS (KM12; 25 mg/kg): 5%; % ILS (CAKI-1): 6%; % T/C (CAKI-1): 43%; Selective toxicity towards leukemia (human tumors; human tumor screen): Selective toxicity towards leukemia was observed; also recorded: preferential cytotoxicity to colon and leukemic cells respectively
2 | CCN1CCC(O)(c2ccc(C)cc2)C(C(=O)c2ccc(C)cc2)C1 (stereo not drawn) [Compound 11d] | 8.6 µM | 25.1 µM | 38.2 µM | 38.7 µM | 1.01 | 4.50 | 1.54 | 0.89 | 3.97 | 1.36 | 34.2 µM | –
3 | CCN1CCC(O)(c2ccc(OC)cc2)C(C(=O)c2ccc(OC)cc2)C1 (stereo not drawn) [Compound 11e] | 4.17 µM | 19.5 µM | 13.5 µM | 39.9 µM | 2.96 | 9.57 | 2.05 | 2.94 | 9.51 | 2.04 | 39.7 µM | –
4 | CCN1CCC(O)(c2ccc(O)cc2)C(C(=O)c2ccc(O)cc2)C1 (stereo not drawn) [Compound 11f] | 1.4 µM | 20.9 µM | 9.75 µM | 42.6 µM | 4.37 | 30.46 | 2.04 | 4.32 | 30.09 | 2.02 | 42.1 µM | –
5 | CC[N+]1(C)CCC(O)(c2ccc(Cl)c(Cl)c2)C(C(=O)c2ccc(Cl)c(Cl)c2)C1 (stereo not drawn) [Compound 12c] | 2.3 µM | 9.54 µM | 33.6 µM | 25.8 µM | 0.77 | 11.20 | 2.70 | 0.84 | 12.23 | 2.95 | 28.1 µM | –
6 | CCN1CCC(O)(/C=C/c2cccc(C)c2)C(C(=O)/C=C/c2cccc(C)c2)C1 (stereo not drawn) [Compound 13a] | 1.89 µM | 2.46 µM | 12.6 µM | 9.23 µM | 0.73 | 4.89 | 3.75 | 1.14 | 7.57 | 5.81 | 14.3 ± 9.1 µM | TI (murine leukemia cells vs T-lymphocytes; printed TIht) compared with compound d (Molt 4/C8 cells): lower; TIht compared with compound 9d (Molt 4/C8 cells): greater than compound 9d; cytotoxicity compared with compound 9d (P388 cells): comparable cytotoxicity to compound 9d; selective/preferential cytotoxicity towards colon cancer cells (human tumors; human tumor screen): neither 13a,b displayed selective toxicity for colon cancers
7 | CCN1CCC(O)(/C=C/c2ccc(C)c(C)c2)C(C(=O)/C=C/c2ccc(C)c(C)c2)C1 (stereo not drawn) [Compound 13b] | 2.59 µM | – | 20.9 µM | 30.8 µM | 1.47 | 11.89 | – | 0.67 | 5.41 | – | 14 ± 8.6 µM | TI (murine leukemia cells vs T-lymphocytes; printed TIht) compared with compound d (Molt 4/C8 cells): lower; TIht compared with compound 9d (Molt 4/C8 cells): greater than compound 9d; cytotoxicity compared with compound 9d (P388 cells): comparable cytotoxicity to compound 9d; selective/preferential cytotoxicity towards colon cancer cells (human tumors; human tumor screen): neither 13a,b displayed selective toxicity for colon cancers
8 | CCC(C)n1ncn(-c2ccc(N3CCN(c4ccc(OCC5COC(Cn6cncn6)(c6ccc(Cl)cc6Cl)O5)cc4)CC3)cc2)c1=O (stereo not drawn) [Itraconazole] | – | – | – | – | – | – | – | – | – | – | – | killing at 5 µM [2]: 85%; MIC (Aspergillus fumigatus; read-out: MIC Mean ± SD): 0.53 ± 0.16 µM (≈ 0.374 µg/mL); MIC (Aspergillus fumigatus; read-out: MIC Range): 0.18 to 0.72 µM (≈ 0.127 to 0.508 µg/mL); MIC ([3]; read-out: MIC Mean ± SD): 0.82 ± 0.35 µM (≈ 0.579 µg/mL); MIC ([3]; read-out: MIC Range): 0.32 to 1.29 µM (≈ 0.226 to 0.91 µg/mL); MIC ([4]; read-out: MIC Mean ± SD): 17.2 ± 5.83 µM (≈ 12.2 µg/mL); MIC ([4]; read-out: MIC Range): 5.19 to 20.8 µM (≈ 3.66 to 14.7 µg/mL)
9 | OC(Cn1cncn1)(Cn1cncn1)c1ccc(F)cc1F [fluconazole] | – | – | – | – | – | – | – | – | – | – | – | mean MIC (Candida albicans): approximately 0.8 μm
10 | N[C@@H](Cc1ccc(N(CCCl)CCCl)cc1)C(=O)O [melphalan, reference compound] | – | 26.3 µM | – | – | 1.16 | 11.23 | 0.09 | – | – | – | – | IC50 (human Jurkat T cells [5]): 1.16 µM; DNA ladder / DNA fragmentation (human Jurkat T cells [6]): A faint DNA ladder could be seen; time after which apoptotic effects were detectable (human Jurkat T cells [7]): 3 h; percentage of apoptotic cells (human Jurkat T cells [7]; 10 μM, 17 hours, control 4.4%): 24%; death of treated cells (human Jurkat T cells [7]; 48 hours): all the treated cells had died
